Key:
[1] = Pharmacokinetic assessment: plasma concentrations by liquid chromatography tandem mass spectrometry after ticagrelor loading dose; type: in vivo, human (patients with myocardial infarction); conditions: for AUC(0–6) / AUC(0–12): oral 180 mg ticagrelor LD, plasma, median [interquartile range]
Protocol: Consecutive STEMI and NSTEMI patients admitted to the study site (Cardiology Department, Dr. A. Jurasz University Hospital, Bydgoszcz, Poland) were screened for eligibility. After admission to the study centre, confirmation of the initial diagnosis of STEMI or NSTEMI, and provision of a written informed consent to participate in the trial, all study participants received an oral 300 mg LD of plain aspirin (Polpharma SA, Starogard Gdański, Poland) and 180 mg LD ticagrelor in integral tablets with 250 mL tap water. Subsequently, within 15 minutes of ticagrelor LD, all patients underwent coronary angiography followed by PCI as required. During the periprocedural period, all study participants received unfractionated heparin in body weight adjusted dose according to the European Society of Cardiology (ESC) recommendations. Plasma concentrations of ticagrelor and its active metabolite, as well as their antiplatelet effect, were evaluated according to the sampling schedule employed at our centre in previous PK/PD study (pre-treatment, 0.5 h, 1 h, 2 h, 3 h, 4 h, 6 h and 12 h post ticagrelor LD).
Blood samples for PK/PD evaluation were obtained from an 18-gauge cannula inserted into one of the forearm veins. The first 5 mL blood was discarded to avoid spontaneous platelet activation. In each patient specimens were collected at the eight pre-defined time. Detailed description of blood sample processing has been published in the study protocol (S1 File).
Ticagrelor and AR-C124910XX plasma concentrations were analyzed with liquid chromatography coupled with tandem mass spectrometry, using a validated method. Lower limits of quantification were 4.69 ng/mL for both ticagrelor and AR-C124910XX.
Statistical calculations were performed using the Statistica 12.5 package (StatSoft, Tulsa, OK, USA). Pharmacokinetic calculations and plots were made using the Matlab R2014 software (Mathworks, Natick, MA, USA); trapezoidal rule was applied to calculate AUC. Data for pharmacokinetic features of ticagrelor and AR-C124910XX, pharmacodynamic outcome variables, creatinine, glomerular filtration rate and left ventricle ejection fraction were presented as medians and interquartile ranges. Data for heart rate, systolic and diastolic blood pressure, age and body mass index were presented as means with standard deviations. […] Continuous variables were compared between both study groups with the Student’s t-test and Mann-Whitney U test, depending on the presence or absence of the normal distribution (as assessed by the Shapiro-Wilk test). Comparisons between categorical variables were performed by the chi-square test, with Yates's correction if necessary, or using Fisher's exact test. […]
Blood samples for pharmacokinetic and phar- infarction; PCI, percutaneous coronary intervention; PD, macodynamic assessment will be drawn at eight prede- pharmacodynamics; PK, pharmacokinetics; STEMI, ﬁned time points according to the blood sampling ST-elevation myocardial infarction. schedule already used at our site in a previous study
( pretreatment baseline, 30 min, 1, 2, 3, 4, 6 andsamples will be stored at temperature below −60°C until 12 hours post-ticagrelor LD— as shown in ﬁgure 1). 31 analysed.
All enrolled patients with ﬁnally unconﬁrmed initial Venous blood for the assessment of pharmacodynam-diagnosis of AMI will be excluded from the primar y ana- ics with the vasodilator-stimulated phosphoprotein lysis. Patients qualiﬁed for urgent coronar y arter y bypass (VASP) assay and multiple electrode aggregometr y surgery within the blood sampling period also will not (MEA) will be collected into trisodium citrate and be included in the analysis. All study participants not hirudin vacuum test tubes, respectively. The ﬁrst 3–5mL receiving PCI will be reported. of blood will be discarded to avoid spontaneous platelet Study population activation. The pharmacodynamic analysis will be per- […]

[2] = parameters: method as in PMID 20551239; conditions: blood plasma, after ticagrelor; cited from earlier work
platelet reactivity [3] = tested on: platelet reactivity; parameters: method as in PMID 27885888; conditions: STEMI patients, first hour after ticagrelor LD, parenteral; cited from earlier work
platelet reactivity [4] = tested on: platelet reactivity; parameters: method as in PMID 27366874; conditions: STEMI patients on prasugrel with concomitant morphine, intravenous; cited from earlier work

## CCCSc1nc(N[C@@H]2C[C@H]2c2ccc(F)c(F)c2)c2nnn([C@@H]3C[C@H](O)[C@@H](O)[C@H]3O)c2n1 [AR-C124910XX]
[1]; NSTEMI patients (n = 24)
  AUC(0–6): 712 [346–1616] ng*h/mL
[1]; NSTEMI patients
  AUC(0–12): 1523 [1005–2867] ng*h/mL
[1]; STEMI patients (n = 49)
  AUC(0–6): 473 [0–924] ng*h/mL
[1]; STEMI patients
  AUC(0–12): 1383 [766–2182] ng*h/mL
[1]; first 6 h after 180 mg ticagrelor LD
  lower AUC(0–6) in STEMI than in NSTEMI patients: 34%
[2]
  plasma concentration relative to the main compound: 30–40%

## CSCCNc1nc(SCCC(F)(F)F)nc2c1ncn2[C@@H]1O[C@H](COP(=O)(O)OP(=O)(O)C(Cl)(Cl)P(=O)(O)O)[C@@H](O)[C@H]1O [cangrelor]
Platelet reactivity [3]
  effect on platelet reactivity and HPR: markedly reduced platelet reactivity and basically eliminated HPR phenomenon

B1: abciximab (antibody, chains of the INN, looked up, V domains shown)
VH: EVQLQQSGTVLARPGASVKMSCEASGYTFTNYWMHWVKQRPGQGLEWIGAIYPGNSDTSYIQKFKGKAKLTAVTSTTSVYMELSSLTNEDSAVYYCTLYDGYYVFAYWGQGTLVTVSA
VL: EIVLTQSPVTLSVTPGDSVSLSCRASRDISNNLHWFQQTSHESPRLLIKYASQSMSGIPSRFSGSGSGTDFTLSINSVETEDFGMYFCQQTNSWPYTFGGGTKLEIK
modifications: Fab
Platelet reactivity [4]
  platelet inhibition: immediate and efficient platelet inhibition
